Values of other authors in patent US9278101B2, “Ophthalmologic irrigation solutions and method” (Omeros Corporation, priority 2002, dated 2016).

Experiments:
[1] = system: non-adrenoceptor imidazoline binding sites
[2] = system: alpha-1 receptor subtypes; settings: three alpha-1 receptor subtypes
[3] = in vivo

## Brc1c(NC2=NCCN2)ccc2nccnc12 [UK14304, 5-bromo-N-(4,5-dihydro-1H-imidazol-2-yl)-6-quinoxalinamine]
[1]
  affinity for non-adrenoceptor imidazoline binding sites: high affinity (nanomolar)

## c1ccc2c(c1)OCC(C1=NCCN1)O2 (stereo not drawn) [idazoxan]
[1]
  affinity for non-adrenoceptor imidazoline binding sites: high affinity (nanomolar)

## COc1cc2nc(N3CCN(C(=O)c4ccco4)CC3)nc(N)c2cc1OC [prazosin]
[2]
  affinity for alpha-1 receptor subtypes: high affinity (subnanomolar)

## Clc1cccc(Cl)c1N=C1NCCN1 [clonidine]
[1]
  affinity for non-adrenoceptor imidazoline binding sites: high affinity (nanomolar)

## tropicamide
[3]
  half-life: 4 to 6 h

## Cc1cc(C(C)(C)C)c(O)c(C)c1CC1=NCCN1 [oxymetazoline]
[1]
  affinity for non-adrenoceptor imidazoline binding sites: high affinity (nanomolar)
